Test results reported in PMC4515095, “Structures of the Apo and FAD-Bound Forms of 2-Hydroxybiphenyl 3-monooxygenase (HbpA) Locate Activity Hotspots Identified by Using Directed Evolution” (Chembiochem, 2015).

Experiments:
[1] = biological target: 2-hydroxybiphenyl 3-monooxygenase (HbpA) from Pseudomonas azelaica HBP1 (Pseudomonas azelaica HBP1); experiment: crystal structure; P1 crystals with four molecules in the asymmetric unit (one tetramer); apo form and FAD complex (crystals soaked in 1 mM FAD); grown in 18 % PEG 3350, 0.15 M KSCN, Bis-Tris propane pH 5.5, protein 10 mg/mL
[2] = biological target: T1, HbpA; 2-hydroxybiphenyl 3-monooxygenase (Pseudomonas nitroreducens, UniProt O06647); experiment: UV spectrophotometry of NADH oxidation at […] nm; type: biochemical; conditions: co-substrate NADH; air-saturated buffer; read-out: WT
T1 construct: full length with uncleaved N-terminal His6 tag, spacer and 3C site (21 residues longer than native); pET-YSBLIC-3C, E. coli BL21(DE3); homotetramer; tag not removed for crystals
T1 sequence (O06647 1-586): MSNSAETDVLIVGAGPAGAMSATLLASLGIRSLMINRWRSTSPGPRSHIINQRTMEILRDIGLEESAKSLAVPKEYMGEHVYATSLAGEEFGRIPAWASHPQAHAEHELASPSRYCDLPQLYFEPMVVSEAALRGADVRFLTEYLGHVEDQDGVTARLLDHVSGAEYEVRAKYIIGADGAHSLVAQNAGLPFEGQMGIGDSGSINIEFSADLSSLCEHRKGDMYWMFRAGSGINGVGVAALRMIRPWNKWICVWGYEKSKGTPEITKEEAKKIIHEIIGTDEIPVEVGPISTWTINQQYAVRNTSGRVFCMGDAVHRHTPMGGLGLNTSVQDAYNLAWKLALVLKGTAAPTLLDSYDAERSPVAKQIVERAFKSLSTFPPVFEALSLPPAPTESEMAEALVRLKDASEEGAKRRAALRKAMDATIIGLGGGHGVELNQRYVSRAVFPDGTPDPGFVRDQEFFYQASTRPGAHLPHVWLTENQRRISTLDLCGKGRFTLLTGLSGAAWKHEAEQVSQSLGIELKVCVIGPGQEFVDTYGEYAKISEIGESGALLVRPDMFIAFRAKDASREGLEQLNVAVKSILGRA

[3] = biological target: T1, HbpA; 2-hydroxybiphenyl 3-monooxygenase; experiment: X-ray crystal structure, […] Å, FAD soak; type: binding; conditions: crystals soaked in 1 mM FAD; flavin in the "in" position

## 2-hydroxybiphenyl 3-monooxygenase (HbpA) from Pseudomonas azelaica HBP1 (enzyme)
[1]
  stoichiometry N: 4

## Oc1ccccc1-c1ccccc1 [2HBP]
[2]
  Km: 3.3 ± 0.2 µM

## Cc1cc2nc3c(=O)[nH]c(=O)nc-3n(C[C@H](O)[C@H](O)[C@H](O)COP(=O)(O)OP(=O)(O)OC[C@H]3O[C@@H](n4cnc5c(N)ncnc54)[C@H](O)[C@@H]3O)c2cc1C [FAD]
[3]
  X-ray crystal structure, 2.03 Å, FAD soak: both apo-HbpA and the FAD complex have been deposited in the Protein Data Bank
